Values joined by “and” are separate entries in the source; they are usually repeats but may differ in a detail not shown here. Identical values can stand only once. Numbers after ± are expanded uncertainties.
Columns and labels:
[1] = xn = mol fraction of the nth substance listed; conditions: 298 K; 100 kPa; Crystal of intercomponent compound 1; X-ray diffraction; x2 = 0.486
[2] = specific heat capacity at constant pressure; xn = mol fraction of the nth substance listed; conditions: 100 kPa, Crystal of intercomponent compound 1, relaxation calorimetry, x2 = 0.486

[Te] [tellurium] + [Ga] gave a mass density [1] of 5448 ± 53 kg/m3, a specific heat capacity ([2]; 14.14 K) of 12.49 ± 1 J/K/kg and a specific heat capacity ([2]; 14.15 K) of 12.53 ± 1 J/K/kg. The specific heat capacity ([2]; 16.16 K) was 17.22 ± 1.2 J/K/kg, the specific heat capacity ([2]; 16.18 K) was 17.24 ± 1.2 J/K/kg and the specific heat capacity ([2]; 18.17 K) was 22.39 ± 1.4 J/K/kg and 22.38 ± 1.4 J/K/kg. For the same compound, the specific heat capacity ([2]; 18.18 K) was 22.43 ± 1.4 J/K/kg, the specific heat capacity ([2]; 20.18 K) was 27.78 ± 1.6 J/K/kg and the specific heat capacity ([2]; 20.19 K) was 27.77 ± 1.6 J/K/kg. It also gave a specific heat capacity ([2]; 20.2 K) of 27.79 ± 1.6 J/K/kg, a specific heat capacity ([2]; 22.21 K) of 33.2 ± 1.7 J/K/kg and a specific heat capacity ([2]; 22.22 K) of 33.22 ± 1.7 J/K/kg. The specific heat capacity ([2]; 24.22 K) was 38.74 ± 1.9 J/K/kg, the specific heat capacity ([2]; 24.23 K) was 38.79 ± 1.9 J/K/kg and the specific heat capacity ([2]; 26.24 K) was 44.36 ± 2.1 J/K/kg and 44.33 ± 2.1 J/K/kg and 44.32 ± 2.1 J/K/kg. It also gave a specific heat capacity ([2]; 28.25 K) of 49.69 ± 2.3 J/K/kg, a specific heat capacity ([2]; 28.26 K) of 49.67 ± 2.3 J/K/kg and a specific heat capacity ([2]; 30.27 K) of 54.94 ± 2.5 J/K/kg. It also gave a specific heat capacity ([2]; 30.29 K) of 54.99 ± 2.5 J/K/kg, a specific heat capacity ([2]; 35.31 K) of 68.01 ± 2.9 J/K/kg and a specific heat capacity ([2]; 35.32 K) of 68.01 ± 2.9 J/K/kg. For the same compound, the specific heat capacity ([2]; 35.33 K) was 68.06 ± 2.9 J/K/kg, the specific heat capacity ([2]; 40.35 K) was 80.38 ± 3.4 J/K/kg and the specific heat capacity ([2]; 40.36 K) was 80.53 ± 3.4 J/K/kg and 80.38 ± 3.4 J/K/kg. For the same compound, the specific heat capacity ([2]; 45.39 K) was 92.13 ± 3.9 J/K/kg, the specific heat capacity ([2]; 45.41 K) was 91.88 ± 3.9 J/K/kg and the specific heat capacity ([2]; 50.41 K) was 103.44 ± 4.3 J/K/kg. The specific heat capacity ([2]; 50.43 K) was 103.49 ± 4.3 J/K/kg, the specific heat capacity ([2]; 50.46 K) was 103.13 ± 4.3 J/K/kg and the specific heat capacity ([2]; 55.45 K) was 113.77 ± 4.7 J/K/kg. For the same compound, the specific heat capacity ([2]; 55.46 K) was 113.98 ± 4.7 J/K/kg, the specific heat capacity ([2]; 55.5 K) was 113.47 ± 4.7 J/K/kg and the specific heat capacity ([2]; 60.48 K) was 123.56 ± 5.1 J/K/kg. It also gave a specific heat capacity ([2]; 60.5 K) of 123.56 ± 5.1 J/K/kg, a specific heat capacity ([2]; 60.52 K) of 123.05 ± 5.1 J/K/kg and a specific heat capacity ([2]; 65.51 K) of 133.13 ± 5.5 J/K/kg. For the same compound, the specific heat capacity ([2]; 65.54 K) was 132.63 ± 5.4 J/K/kg, the specific heat capacity ([2]; 65.55 K) was 133.08 ± 5.5 J/K/kg and the specific heat capacity ([2]; 70.55 K) was 141.95 ± 5.8 J/K/kg. It also gave a specific heat capacity ([2]; 70.56 K) of 141.34 ± 5.8 J/K/kg, a specific heat capacity ([2]; 70.6 K) of 141.7 ± 5.8 J/K/kg and a specific heat capacity ([2]; 75.58 K) of 149.91 ± 6.1 J/K/kg. It also gave a specific heat capacity ([2]; 75.59 K) of 149.2 ± 6.1 J/K/kg, a specific heat capacity ([2]; 75.64 K) of 149.81 ± 6.1 J/K/kg and a specific heat capacity ([2]; 80.61 K) of 157.76 ± 6.4 J/K/kg. It also gave a specific heat capacity ([2]; 80.63 K) of 157.11 ± 6.4 J/K/kg, a specific heat capacity ([2]; 80.67 K) of 157.61 ± 6.4 J/K/kg and a specific heat capacity ([2]; 85.63 K) of 164.86 ± 6.7 J/K/kg. The specific heat capacity ([2]; 85.64 K) was 164.2 ± 6.7 J/K/kg, the specific heat capacity ([2]; 85.72 K) was 164.66 ± 6.7 J/K/kg and the specific heat capacity ([2]; 90.68 K) was 171.5 ± 7 J/K/kg and 170.94 ± 6.9 J/K/kg. For the same compound, the specific heat capacity ([2]; 90.75 K) was 171.14 ± 7 J/K/kg, the specific heat capacity ([2]; 95.71 K) was 177.22 ± 7.2 J/K/kg and 176.31 ± 7.2 J/K/kg and the specific heat capacity ([2]; 95.78 K) was 176.62 ± 7.2 J/K/kg. It also gave a specific heat capacity ([2]; 100.78 K) of 185.08 ± 7.6 J/K/kg, a specific heat capacity ([2]; 100.82 K) of 184.52 ± 7.5 J/K/kg and a specific heat capacity ([2]; 100.86 K) of 184.88 ± 7.6 J/K/kg. The specific heat capacity ([2]; 105.73 K) was 192.73 ± 7.9 J/K/kg, the specific heat capacity ([2]; 105.87 K) was 191.31 ± 7.8 J/K/kg and 192.07 ± 7.8 J/K/kg and the specific heat capacity ([2]; 113.71 K) was 198.86 ± 8.1 J/K/kg. The specific heat capacity ([2]; 113.79 K) was 197.4 ± 8 J/K/kg, the specific heat capacity ([2]; 113.83 K) was 197.65 ± 8.1 J/K/kg and the specific heat capacity ([2]; 121.68 K) was 205.1 ± 8.3 J/K/kg. The specific heat capacity ([2]; 121.71 K) was 204.14 ± 8.3 J/K/kg, the specific heat capacity ([2]; 121.77 K) was 203.73 ± 8.3 J/K/kg and the specific heat capacity ([2]; 129.62 K) was 209.51 ± 8.5 J/K/kg. The specific heat capacity ([2]; 129.64 K) was 209.91 ± 8.5 J/K/kg, the specific heat capacity ([2]; 129.7 K) was 208.39 ± 8.5 J/K/kg and the specific heat capacity ([2]; 137.55 K) was 213.76 ± 8.7 J/K/kg. The specific heat capacity ([2]; 137.59 K) was 213.56 ± 8.7 J/K/kg, the specific heat capacity ([2]; 137.61 K) was 212.24 ± 8.6 J/K/kg and the specific heat capacity ([2]; 145.48 K) was 218.93 ± 8.9 J/K/kg. The specific heat capacity ([2]; 145.53 K) was 218.27 ± 8.9 J/K/kg, the specific heat capacity ([2]; 145.54 K) was 217.36 ± 8.8 J/K/kg and the specific heat capacity ([2]; 153.41 K) was 222.38 ± 9 J/K/kg. The specific heat capacity ([2]; 153.42 K) was 222.23 ± 9 J/K/kg, the specific heat capacity ([2]; 153.44 K) was 222.08 ± 9 J/K/kg and the specific heat capacity ([2]; 161.35 K) was 224.41 ± 9.1 J/K/kg and 224.26 ± 9.1 J/K/kg. The specific heat capacity ([2]; 161.36 K) was 224.31 ± 9.1 J/K/kg, the specific heat capacity ([2]; 169.28 K) was 227.5 ± 9.2 J/K/kg and 227.09 ± 9.2 J/K/kg and the specific heat capacity ([2]; 169.3 K) was 227.04 ± 9.2 J/K/kg. The specific heat capacity ([2]; 177.2 K) was 229.17 ± 9.3 J/K/kg and 228.87 ± 9.3 J/K/kg, the specific heat capacity ([2]; 177.22 K) was 228.92 ± 9.3 J/K/kg and the specific heat capacity ([2]; 185.1 K) was 230.89 ± 9.4 J/K/kg. The specific heat capacity ([2]; 185.14 K) was 230.79 ± 9.4 J/K/kg, the specific heat capacity ([2]; 185.15 K) was 230.59 ± 9.4 J/K/kg and the specific heat capacity ([2]; 193.03 K) was 233.63 ± 9.5 J/K/kg. The specific heat capacity ([2]; 193.06 K) was 233.38 ± 9.5 J/K/kg, the specific heat capacity ([2]; 193.08 K) was 233.43 ± 9.5 J/K/kg and the specific heat capacity ([2]; 200.95 K) was 233.83 ± 9.5 J/K/kg. The specific heat capacity ([2]; 200.99 K) was 233.88 ± 9.5 J/K/kg, the specific heat capacity ([2]; 201 K) was 233.68 ± 9.5 J/K/kg and the specific heat capacity ([2]; 201.42 K) was 236.77 ± 9.9 J/K/kg. The specific heat capacity ([2]; 201.44 K) was 236.67 ± 9.9 J/K/kg, the specific heat capacity ([2]; 201.53 K) was 234.69 ± 9.5 J/K/kg and the specific heat capacity ([2]; 206.43 K) was 237.94 ± 9.7 J/K/kg. The specific heat capacity ([2]; 206.46 K) was 237.84 ± 9.7 J/K/kg, the specific heat capacity ([2]; 206.54 K) was 236.01 ± 9.6 J/K/kg and the specific heat capacity ([2]; 208.87 K) was 236.16 ± 9.6 J/K/kg. For the same compound, the specific heat capacity ([2]; 208.91 K) was 236.52 ± 9.6 J/K/kg, the specific heat capacity ([2]; 208.92 K) was 236.37 ± 9.6 J/K/kg and the specific heat capacity ([2]; 211.46 K) was 238.9 ± 9.7 J/K/kg. For the same compound, the specific heat capacity ([2]; 211.47 K) was 238.9 ± 9.7 J/K/kg, the specific heat capacity ([2]; 211.55 K) was 236.98 ± 9.6 J/K/kg and the specific heat capacity ([2]; 216.49 K) was 239.91 ± 9.7 J/K/kg. The specific heat capacity ([2]; 216.55 K) was 238.55 ± 9.7 J/K/kg, the specific heat capacity ([2]; 216.78 K) was 238.34 ± 9.7 J/K/kg and the specific heat capacity ([2]; 216.82 K) was 238.39 ± 9.7 J/K/kg. For the same compound, the specific heat capacity ([2]; 216.83 K) was 238.19 ± 9.7 J/K/kg, the specific heat capacity ([2]; 221.51 K) was 241.18 ± 9.8 J/K/kg and 241.33 ± 9.8 J/K/kg and 241.13 ± 9.8 J/K/kg and the specific heat capacity ([2]; 221.53 K) was 241.03 ± 9.8 J/K/kg. For the same compound, the specific heat capacity ([2]; 221.59 K) was 239.61 ± 9.7 J/K/kg, the specific heat capacity ([2]; 224.71 K) was 241.13 ± 9.8 J/K/kg and the specific heat capacity ([2]; 224.75 K) was 241.28 ± 9.8 J/K/kg. For the same compound, the specific heat capacity ([2]; 224.76 K) was 240.98 ± 9.8 J/K/kg, the specific heat capacity ([2]; 225.58 K) was 241.79 ± 9.8 J/K/kg and the specific heat capacity ([2]; 225.61 K) was 241.84 ± 9.8 J/K/kg. The specific heat capacity ([2]; 226.54 K) was 242.25 ± 9.8 J/K/kg and 242.35 ± 9.8 J/K/kg, the specific heat capacity ([2]; 226.61 K) was 240.73 ± 9.8 J/K/kg and the specific heat capacity ([2]; 229.65 K) was 241.89 ± 9.8 J/K/kg. It also gave a specific heat capacity ([2]; 229.68 K) of 241.44 ± 9.8 J/K/kg, a specific heat capacity ([2]; 231.54 K) of 243.26 ± 9.9 J/K/kg and a specific heat capacity ([2]; 231.76 K) of 241.44 ± 9.8 J/K/kg. The specific heat capacity ([2]; 232.62 K) was 240.42 ± 9.8 J/K/kg, the specific heat capacity ([2]; 232.68 K) was 239.97 ± 9.7 J/K/kg and 240.47 ± 9.8 J/K/kg and the specific heat capacity ([2]; 233.72 K) was 242.04 ± 9.8 J/K/kg. The specific heat capacity ([2]; 233.75 K) was 241.94 ± 9.8 J/K/kg, the specific heat capacity ([2]; 236.76 K) was 242.3 ± 9.8 J/K/kg and the specific heat capacity ([2]; 237.69 K) was 243.11 ± 9.9 J/K/kg. For the same compound, the specific heat capacity ([2]; 237.73 K) was 242.45 ± 9.8 J/K/kg, the specific heat capacity ([2]; 240.54 K) was 241.54 ± 9.8 J/K/kg and the specific heat capacity ([2]; 240.6 K) was 241.28 ± 9.8 J/K/kg and 241.49 ± 9.8 J/K/kg.

From the NIST ThermoML archive (doi:10.1016/j.jct.2018.08.013)
